Measurements published in patent US20250163061A1 (Bala Therapeutics, Inc., priority 2021, published 2025).

Columns and labels:
Format in all cases: cell-based
MV4-11 = MV4-11 cellular growth inhibition assay (CellTiter-Glo); settings: Homo sapiens, 168 h, MV4-11 cells, 7 days of incubation
Method: (§1) HEK293 (Institute of Cytology Russian Academy of Science), MV4-11 (ATCC, CRL-9591), MOLM-13 (AcceGen, ABC-TC517S) were seeded at a density of 500 cells per well (HEK293) and 2000 cells per well (MV4-11, MOLM-13) in a 384-well clear bottom plate (Greiner Cat #781090) in 45 μl total volume of DMEM (PanEco, Cat #C420, Russia) or RPMI (PanEco, Cat #C330, Russia) with 10% FBS (HyClone Cat #SV30160.03). HEK293 were allowed to adhere overnight at 37° C., 5% CO2. 500× compounds solutions in DMSO (Sigma Cat #D2650) were prepared into Cmpnds plate (Diamond Well Plate, Axigen, Cat #P-384-120SQ-C-S) and DMSO only control was included. 1 μl of 500× compounds (Cmpnds plate) was added to 49 μl of culture medium into Dilution plate (Diamond Well Plate, Axigen, Cat #P-384-120SQ-C-S), mixed and then 5 μl of 10× compounds solutions were transferred to cells followed by centrifugation at 100 g for 1 min. Final DMSO concentration was 0.2%. After 3 days of incubation, 10 μl of 1× compounds were added to cells. After 7 days of incubation, 12 μl of CellTiter-Glo (Promega, CAT #G7572) were added to the cells, plate was centrifuged at 100 g for 1 min and luminescence signal was measured using Microplate Reader (CLARIOStar).

MOLM-13 = MOLM-13 cellular growth inhibition assay (CellTiter-Glo); settings: Homo sapiens, 168 h, MOLM-13 cells, 7 days of incubation
Method: as §1

[1] = HEK293 cellular growth inhibition assay (CellTiter-Glo); settings: human, HEK293 cells, 7 days of incubation
Method: as §1

**Q.** Which results are given for `Cc1c(CN2CCC3(CC2)CN(c2ncnc4ccc(CC(F)(F)F)cc24)C3)ccc2c1cc(C#N)n2CC1CNC(=O)NC1` [Compound 4, 4-Methyl-1-[(2-oxohexahydropyrimidin-5-yl)methyl]-5-[[2-[6-(2,2,2-trifluoroethyl)quinazolin-4-yl]-2,7-diazaspiro[3.5]nonan-7-yl]methyl]indole-2-carbonitrile]?
**A.** CC50 (MV4-11): 0.1 to 0.5 µM; CC50 (MOLM-13): 0.5 to 1 µM

**Q.** Which results are given for `Cc1c(CN2CCC3(CC2)CN(c2ncnc4cnc(CC(F)(F)F)cc24)C3)ccc2c1cc(C#N)n2CC(C)N1CCN(S(C)(=O)=O)CC1` (centres unmarked) [Compound 45, 4-Methyl-1-{2-[4-(methylsulfonyl)piperazin-1-yl]propyl}-5-({2-[6-(2,2,2-trifluoroethyl)pyrido[3,4-d]pyrimidin-4-yl]-2,7-diazaspiro[3.5]non-7-yl}methyl)-1H-indole-2-carbonitrile]?
**A.** CC50 (MV4-11): 0.1 to 0.5 µM; CC50 (MOLM-13): 1 to 5 µM; CC50 at 7 days [1]: 5 to 10 µM

**Q.** For `Cc1c(CN2CCC3(CC2)CN(c2ncnc4ccc(CC(F)(F)F)cc24)C3)ccc2c1cc(C#N)n2CC1CCNC(=O)CO1` (centres unmarked) [Compound 2, 4-Methyl-1-[(3-oxo-1,4-oxazepan-7-yl)methyl]-5-[[2-[6-(2,2,2-trifluoroethyl)quinazolin-4-yl]-2,7-diazaspiro[3.5]nonan-7-yl]methyl]indole-2-carbonitrile], which CC50 (MV4-11) is on record?
**A.** The CC50 was 0.1 to 0.5 µM.

**Q.** And the CC50 (MOLM-13)?
**A.** Its CC50 is 1 to 5 µM.

**Q.** What about the CC50 at 7 days [1] of the same compound?
**A.** The CC50 at 7 days was 2 to 5 µM.

**Q.** With `CNC(=O)NC12CC(Cn3c(C#N)cc4c(C)c(CN5CCC6(CC5)CN(c5ncnc7ccc(CC(F)(F)F)cc57)C6)ccc43)(C1)C2` [Compound 60, 1-[3-[[2-Cyano-4-methyl-5-[[2-[6-(2,2,2-trifluoroethyl)quinazolin-4-yl]-2,7-diazaspiro[3.5]nonan-7-yl]methyl]indol-1-yl]methyl]-1-bicyclo[1.1.1]pentanyl]-3-methyl-urea] as the compound, how does the CC50 (MV4-11) read?
**A.** Its CC50 is no more than 0.1 µM.

**Q.** What about the CC50 (MOLM-13) of the same compound?
**A.** The CC50 was no more than 0.1 µM.

**Q.** And the CC50 at 7 days [1]?
**A.** Its CC50 at 7 days is 2 to 5 µM.

**Q.** For `CC(=O)NC12CC(Cn3c(C#N)cc4c(C)c(CN5CCC6(CC5)CN(c5ncnc7ccc(CC(F)(F)F)cc57)C6)ccc43)(C1)C2` [Compound 59, N-[3-[[2-Cyano-4-methyl-5-[[2-[6-(2,2,2-trifluoroethyl)quinazolin-4-yl]-2,7-diazaspiro[3.5]nonan-7-yl]methyl]indol-1-yl]methyl]-1-bicyclo[1.1.1]pentanyl]acetamide], which CC50 (MV4-11) is on record?
**A.** The CC50 was no more than 0.1 µM.

**Q.** What about the CC50 (MOLM-13) of the same compound?
**A.** The CC50 was no more than 0.1 µM.

**Q.** What about the CC50 at 7 days [1] of the same compound?
**A.** The CC50 at 7 days was 2 to 5 µM.

**Q.** For `Cc1c(CN2CCC3(CC2)CN(c2ncnc4ccc(CC(F)(F)F)nc24)C3)ccc2c1cc(C#N)n2CC(C)N1CCN(S(C)(=O)=O)CC1` (centres unmarked) [Compound 67, 4-Methyl-1-{2-[4-(methylsulfonyl)piperazin-1-yl]propyl}-5-({2-[6-(2,2,2-trifluoroethyl)pyrido[3,2-d]pyrimidin-4-yl]-2,7-diazaspiro[3.5]non-7-yl}methyl)-1H-indole-2-carbonitrile], which CC50 (MV4-11) is on record?
**A.** The CC50 was 0.1 to 0.5 µM.

**Q.** And the CC50 (MOLM-13)?
**A.** The CC50 was 0.1 to 0.5 µM.

**Q.** What about the CC50 at 7 days [1] of the same compound?
**A.** The CC50 at 7 days was 5 to 10 µM.

**Q.** Which results are given for `Cc1c(CN2CCC3(CC2)CN(c2ncnc4ccc(CC(F)(F)F)cc24)C3)ccc2c1cc(C#N)n2C[C@@H]1CNC(=O)CO1` [Compound 102, 4-Methyl-1-{[(2S)-5-oxomorpholin-2-yl]methyl}-5-({2-[6-(2,2,2-trifluoroethyl)quinazolin-4-yl]-2,7-diazaspiro[3.5]non-7-yl}methyl)-1H-indole-2-carbonitrile]?
**A.** CC50 (MV4-11): ≤ 0.1 µM; CC50 (MOLM-13): 0.1 to 0.5 µM; CC50 at 7 days [1]: ≤ 2 µM

**Q.** With `COc1cc2c(cc1CN1CCC3(CC1)CN(c1ncnc4ccc(CC(F)(F)F)cc14)C3)cc(C#N)n2CC(C)N1CCN(S(C)(=O)=O)CC1` (centres unmarked) [Compound 20, 6-Methoxy-1-{2-[4-(methylsulfonyl)piperazin-1-yl]propyl}-5-({2-[6-(2,2,2-trifluoroethyl)quinazolin-4-yl]-2,7-diazaspiro[3.5]non-7-yl}methyl)-1H-indole-2-carbonitrile] as the compound, how does the CC50 (MV4-11) read?
**A.** Its CC50 is 0.1 to 0.5 µM.

**Q.** What about the CC50 (MOLM-13) of the same compound?
**A.** Its CC50 is 1 to 5 µM.

**Q.** And the CC50 at 7 days [1]?
**A.** The CC50 at 7 days was 2 to 5 µM.

**Q.** For `Cc1c(CN2CCC3(CC2)CN(c2ncnc4ccc(CC(F)(F)F)cc24)C3)ccc2c1cc(C#N)n2CC1CNC(=O)CO1` (centres unmarked) [Compound 82, 4-Methyl-1-[(5-oxomorpholin-2-yl)methyl]-5-({2-[6-(2,2,2-trifluoroethyl)quinazolin-4-yl]-2,7-diazaspiro[3.5]non-7-yl}methyl)-1H-indole-2-carbonitrile], which CC50 (MV4-11) is on record?
**A.** Its CC50 is no more than 0.1 µM.

**Q.** And the CC50 (MOLM-13)?
**A.** Its CC50 is 0.1 to 0.5 µM.

**Q.** And the CC50 at 7 days [1]?
**A.** The CC50 at 7 days was 2 to 5 µM.

**Q.** Which CC50 (MV4-11) does the source give for `Cc1c(CN2CCC3(CC2)CN(c2nncc4ccc(CC(F)(F)F)cc24)C3)ccc2c1cc(C#N)n2CC(C)N1CCN(S(C)(=O)=O)CC1` (centres unmarked) [Compound 79, 4-Methyl-1-[2-(4-methylsulfonylpiperazin-1-yl)propyl]-5-[[2-[7-(2,2,2-trifluoroethyl)phthalazin-1-yl]-2,7-diazaspiro[3.5]nonan-7-yl]methyl]indole-2-carbonitrile] here?
**A.** The CC50 was 0.5 to 1 µM.

**Q.** And the CC50 (MOLM-13)?
**A.** The CC50 was 1 to 5 µM.

**Q.** What about the CC50 at 7 days [1] of the same compound?
**A.** The CC50 at 7 days was 5 to 10 µM.

**Q.** What does the source list for `CN(C)C/C=C/C(=O)N1CCN(CCn2c(C#N)cc3cc(CN4CCC5(CC4)CN(c4ncnc6ccc(CC(F)(F)F)cc46)C5)ccc32)CC1` [Compound 99]?
**A.** CC50 (MV4-11): 1 to 5 µM; CC50 (MOLM-13): 1 to 5 µM; CC50 at 7 days [1]: ≤ 2 µM

**Q.** With `C=CC(=O)N1CCN(CCCCn2c(C#N)cc3c(C)c(CN4CCC5(CC4)CN(c4ncnc6ccc(CC(F)(F)F)cc46)C5)ccc32)CC1` [Compound 65, 1-[4-(4-Acryloylpiperazin-1-yl)butyl]-4-methyl-5-({2-[6-(2,2,2-trifluoroethyl)quinazolin-4-yl]-2,7-diazaspiro[3.5]non-7-yl}methyl)-1H-indole-2-carbonitrile] as the compound, how does the CC50 (MV4-11) read?
**A.** Its CC50 is 0.1 to 0.5 µM.

**Q.** What about the CC50 (MOLM-13) of the same compound?
**A.** Its CC50 is 1 to 5 µM.

**Q.** What about the CC50 at 7 days [1] of the same compound?
**A.** The CC50 at 7 days was no more than 2 µM.

**Q.** Which results are given for `CS(=O)(=O)N1CCN(CCn2c(C#N)cc3cc(CN4CCC5(CC4)CN(c4ncnc6ccc(CC(F)(F)F)cc46)C5)ccc32)CC1` [Compound 91, 1-{2-[4-(Methylsulfonyl)piperazin-1-yl]ethyl}-5-({2-[6-(2,2,2-trifluoroethyl)quinazolin-4-yl]-2,7-diazaspiro[3.5]non-7-yl}methyl)-1H-indole-2-carbonitrile]?
**A.** CC50 (MV4-11): 0.5 to 1 µM; CC50 (MOLM-13): 1 to 5 µM; CC50 at 7 days [1]: 5 to 10 µM

**Q.** Which results are given for `Cc1c(CN2CCC3(CC2)CN(c2ncnc4ccc(CC(F)(F)F)cc24)C3)ccc2c1cc(C#N)n2CC1CNC(=O)C(C)O1` (centres unmarked) [Compound 7, 4-Methyl-1-[(6-methyl-5-oxo-morpholin-2-yl)methyl]-5-[[2-[6-(2,2,2-trifluoroethyl)quinazolin-4-yl]-2,7-diazaspiro[3.5]nonan-7-yl]methyl]indole-2-carbonitrile]?
**A.** CC50 (MV4-11): ≤ 0.1 µM; CC50 (MOLM-13): 0.1 to 0.5 µM; CC50 at 7 days [1]: 2 to 5 µM

**Q.** Which results are given for `CCS(=O)(=O)N1CCN([C@H](C)Cn2c(C#N)cc3c(C)c(CN4CCC5(CC4)CN(c4ncnc6ccc(CC(F)(F)F)cc46)C5)ccc32)C[C@@H]1C` [Compound 25, 1-[(2R)-2-[(3S)-4-ethylsulfonyl-3-methyl-piperazin-1-yl]propyl]-4-methyl-5-[[2-[6-(2,2,2-trifluoroethyl)quinazolin-4-yl]-2,7-diazaspiro[3.5]nonan-7-yl]methyl]indole-2-carbonitrile]?
**A.** CC50 (MV4-11): 0.1 to 0.5 µM; CC50 (MOLM-13): 0.5 to 1 µM; CC50 at 7 days [1]: 2 to 5 µM

**Q.** Which CC50 (MV4-11) does the source give for `Cc1c(CN2CCC3(CC2)CN(c2ncnc4ccc(CC(F)(F)F)cc24)C3)ccc2c1cc(C#N)n2CC1CCNC(=O)CC1` (centres unmarked) [Compound 5, 4-Methyl-1-[(7-oxoazepan-4-yl)methyl]-5-[[2-[6-(2,2,2-trifluoroethyl)quinazolin-4-yl]-2,7-diazaspiro[3.5]nonan-7-yl]methyl]indole-2-carbonitrile] here?
**A.** The CC50 was 0.1 to 0.5 µM.

**Q.** And the CC50 (MOLM-13)?
**A.** Its CC50 is 0.5 to 1 µM.

**Q.** And the CC50 at 7 days [1]?
**A.** Its CC50 at 7 days is no more than 2 µM.

**Q.** Which results are given for `Cc1c(CN2CCC3(CC2)CN(c2ncnc4ccc(CC(F)(F)F)cc24)C3)ccc2c1cc(C#N)n2CCN1CCOCC1` [Compound 97, 4-Methyl-1-(2-morpholin-4-ylethyl)-5-({2-[6-(2,2,2-trifluoroethyl)quinazolin-4-yl]-2,7-diazaspiro[3.5]non-7-yl}methyl)-1H-indole-2-carbonitrile]?
**A.** CC50 (MV4-11): 0.5 to 1 µM; CC50 (MOLM-13): 1 to 5 µM; CC50 at 7 days [1]: 2 to 5 µM

**Q.** Which CC50 (MV4-11) does the source give for `Cc1c(CN2CCC3(CC2)CN(c2ncnc4ncc(CC(F)(F)F)nc24)C3)ccc2c1cc(C#N)n2CC(C)N1CCN(S(C)(=O)=O)CC1` (centres unmarked) [Compound 42, 4-Methyl-1-[2-(4-methylsulfonylpiperazin-1-yl)propyl]-5-[[2-[6-(2,2,2-trifluoroethyl)pteridin-4-yl]-2,7-diazaspiro[3.5]nonan-7-yl]methyl]indole-2-carbonitrile] here?
**A.** The CC50 was 0.1 to 0.5 µM.

**Q.** What about the CC50 (MOLM-13) of the same compound?
**A.** The CC50 was 0.1 to 0.5 µM.

**Q.** What about the CC50 at 7 days [1] of the same compound?
**A.** The CC50 at 7 days was no more than 2 µM.

**Q.** For `C=CC(=O)N1CCN(CCCn2c(C#N)cc3c(C)c(CN4CCC5(CC4)CN(c4ncnc6ccc(CC(F)(F)F)cc46)C5)ccc32)CC1` [Compound 66, 4-methyl-1-[3-(4-prop-2-enoylpiperazin-1-yl)propyl]-5-[[2-[6-(2,2,2-trifluoroethyl)quinazolin-4-yl]-2,7-diazaspiro[3.5]nonan-7-yl]methyl]indole-2-carbonitrile], which CC50 (MV4-11) is on record?
**A.** Its CC50 is 0.1 to 0.5 µM.

**Q.** What about the CC50 (MOLM-13) of the same compound?
**A.** Its CC50 is 0.1 to 0.5 µM.

**Q.** What about the CC50 at 7 days [1] of the same compound?
**A.** The CC50 at 7 days was 2 to 5 µM.
